Experimental data: patent publication US20240408132A1, “HYPOHALOUS ACIDS FOR TREATING INFLAMMATORY DISEASES AND INHIBITING GROWTH OF MALIGNANCIES” (BT Manufacturing, LLC, priority 2020, published 2024)
Read-outs that look alike come from different tables or passages of the source.

How the values were obtained:
IL-6 [1] = biological target: T1, IL-6 (Homo sapiens, UniProt P05231); test: ELISA of IL-6 binding to anti-IL6 antibody after exposure to HOCl or HOBr; settings: IL-6 exposed for 5 minutes at concentrations >2 ppm, halogen quenched before incubation
T1 sequence (P05231 30-212): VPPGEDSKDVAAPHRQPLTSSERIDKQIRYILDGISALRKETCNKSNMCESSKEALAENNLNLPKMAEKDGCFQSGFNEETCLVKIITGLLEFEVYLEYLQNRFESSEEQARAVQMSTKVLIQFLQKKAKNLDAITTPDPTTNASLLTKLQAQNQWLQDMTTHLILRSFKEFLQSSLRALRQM
Experimental: An ELISA assay (Fisher Scientific) was used to detect binding changes between IL6 and anti-IL6 antibody binding in the presence of HOCl or HOBr. Anti-human IL6 antibody was immobilized to a polystyrene 96 well plate as the capture antibody. IL-6 was exposed to various concentrations of HOCl or HOBr for 5 minutes. The active halogen was quenched before incubation with the coated plate wells. A second anti-human IL6 antibody was introduced to the coated wells and served as a detector to an enzyme-mediated chromophore indicator system.
The inhibition of IL-6 reactivity by exposure to HOCl is illustrated in FIG. 1.

mouse [2] = settings: in vivo
Source text: (§1) Experimental exposures of rodents were done according to OECD method 423 for acute oral toxicity assessment, OECD method 434 for acute dermal toxicity and OECD method 433 for acute inhalation.

human subjects = test: Safety of human volunteers exposed to microaerosolized HOCl via inhalation; format: in vivo; settings: dense microaerosols for 2-5 minutes, 400 episodes
Experimental: The safety of exposure of human subjects to microaerosolized pure stable HOCl via the respiratory route was evaluated.
Human volunteers were exposed to dense microaerosols of HOCl for periods of 2-5 minutes and submitted subjective reports of the outcomes of these experiences. Data on a total of 400 such episodes were collected under medical supervision.

IL-6 [3] = biological target: T1, IL-6; test: IL-6 bioassay (Promega), luminescence in receptor-expressing human cells; format: cell-based
Experimental: An IL-6 bioassay (Promega) was used to determine the effect of HOCl on IL-6 binding to human cells triggering a change in luminescence. IL-6 was incubated with various concentrations of HOCl and quenched, before addition to the receptor-expressing human cells.
Binding of the cytokine was measured by luminescence.

mouse [4] = settings: in vivo; remark: listed apart in the source
Source text: as §1

| SMILES | binding of IL-6 to the capture antibody (IL-6 [1]) | Result/Behavior (mouse [2]) | Result/Histopathology (mouse [2]) | serious adverse effects (human subjects) | minor complaints (nose irritation, slight impact on ease of deep breathing) (human subjects; disappeared upon cessation of exposure) | capacity of the cytokine to initiate transmembrane signaling (IL-6 [3]; IL-6 exposed to HOCl) | luminescence of HOCl-treated IL-6 (IL-6 [3]; all concentrations tested, IL-6 incubated with HOCl and quenched before addition to cells) | Result/Behavior (mouse [4]) | Result/Histopathology (mouse [4]) |
| --- | --- | --- | --- | --- | --- | --- | --- | --- | --- |
| OBr [HOBr, Hypobromous acid] | undetectable |  |  |  |  |  |  |  |  |
| OCl [HOCl, hypochlorous acid] | no detectable binding | No change | No | No serious adverse effects | approximately 3% | complete inhibition | significantly reduced luminescence | No change | No |
